From patent US11273168B2, “Methods of treating anxiety by administering a substituted quinolone” (OTSUKA PHARMACEUTICAL CO., LTD., priority 2010, dated 2022)
Counter-ions that a name gives are not always drawn. Like-named read-outs stand apart in the source and are kept apart here.

Assays:
Assay type in all cases: biochemical
[1] = molecular target: Norepinephrine (NE) uptake (Rattus norvegicus, UniProt Q9WTR4); assay: Norepinephrine (NE) uptake inhibitory activity using rat brain synaptosome (hippocampus)
Protocol: Measurement of Norepinephrine (NE) Uptake Inhibitory Activity of Test Compound Using Rat Brain Synaptosome
Male Wistar rats were decapitated, and their brains were removed and dissected to remove the hippocampus. The separated hippocampus was placed in a 20-fold weight of a 0.32 molarity (M) sucrose solution and homogenized with a potter homogenizer. The homogenate was centrifuged at 1000 g at 4° C. for 10 minutes, and the supernatant was further centrifuged at 20000 g at 4° C. for 20 minutes. The pellet was suspended in an incubation buffer (20 mM HEPES buffer (pH 7.4) containing 10 mM glucose, 145 mM sodium chloride, 4.5 mM potassium chloride, 1.2 mM magnesium chloride, and 1.5 mM calcium chloride). The suspension was used as a crude synaptosome fraction.
(§1) Uptake reaction was performed using each well of a 96-well round-bottom plate and a 200 μl volume in total of a solution containing pargyline (final concentration: 10 μM) and ascorbic acid (final concentration: 0.2 mg/ml).
(§2) Specifically, a solvent, unlabeled NE, and serially diluted test compounds were separately added to the wells, and the synaptosome fraction was added in an amount 1/10 of the final volume to each well and preincubated at 37° C. for 10 minutes. Then, a tritium-labeled NE solution (final concentration: 12 nM) was added thereto to initiate uptake reaction at 37° C. Ten minutes later, the uptake reaction was terminated by suction filtration through a 96-well glass fiber filter plate. Furthermore, the filter was washed with a cold saline and then sufficiently dried. MicroScint-O (PerkinElmer Co., Ltd.) was added thereto, and the residual radioactivity on the filter was measured.
(§3) An uptake value obtained by the addition of only the solvent was defined as 100%, and an uptake value (nonspecific uptake value) obtained by the addition of the unlabeled NE (final concentration: 10 μM) was defined as 0%. A 50% inhibitory concentration was calculated from the test compound concentrations and inhibitory activities thereat.

Serotonin (5-HT) uptake = molecular target: T1, Serotonin (5-HT) uptake (Rattus norvegicus, UniProt P31652); assay: Serotonin (5-HT) uptake inhibitory activity using rat brain synaptosome (frontal cortex); settings: tritium-labeled 5-HT 8 nM, 37° C. 10 minutes
T1 construct: The suspension was used as a crude synaptosome fraction; from tissue; host or cells: rat (male Wistar) frontal cortex, crude synaptosome fraction
Protocol: Measurement of Serotonin (5-HT) Uptake Inhibitory Activity of Test Compound Using Rat Brain Synaptosome
(§4) Male Wistar rats were decapitated, and their brains were removed and dissected to remove the frontal cortex. The separated frontal cortex was placed in a 20-fold weight of a 0.32 molarity (M) sucrose solution and homogenized with a potter homogenizer. The homogenate was centrifuged at 1000 g at 4° C. for 10 minutes, and the supernatant was further centrifuged at 20000 g at 4° C. for 20 minutes. […] The suspension was used as a crude synaptosome fraction.
as §1
as §2, with “5-HT,” for “NE,”, “5-HT” for “NE”, “8” for “12”, “10” for “Ten”
as §3, with “5-HT” for “NE”, “50%,” for “50%”

Dopamine (DA) uptake = molecular target: T2, Dopamine (DA) uptake (Rattus norvegicus, UniProt P23977); assay: Dopamine (DA) uptake inhibitory activity using rat brain synaptosome (corpus striatum); settings: tritium-labeled DA 2 nM, 37° C. ten minutes, read-out: 50% Inhibitory concentration
T2 construct: The suspension was used as a crude synaptosome fraction; from tissue; host or cells: rat (male Wistar) corpus striatum, crude synaptosome fraction
Protocol: Measurement of Dopamine (DA) Uptake Inhibitory Activity of Test Compound Using Rat Brain Synaptosome
as §4, with “corpus striatum.” for “frontal cortex.”, “corpus striatum” for “frontal cortex”
Uptake reaction was performed using each well of a 96-well round-bottom plate and a 200 μl volume in total of a solution containing pargyline (final concentration: 10 μM) and ascorbic acid (final concentration: 0.2 mg/mil).
as §2, with “DA,” for “NE,”, “DA” for “NE”, “2” for “12”
as §3, with “DA” for “NE”

[2] = tritium-labeled NE 12 nM, 37° C. ten minutes, read-out: 50% inhibitory concentration
[3] = read-out: 50% Inhibitory concentration

T1 sequence (P31652 whole entry): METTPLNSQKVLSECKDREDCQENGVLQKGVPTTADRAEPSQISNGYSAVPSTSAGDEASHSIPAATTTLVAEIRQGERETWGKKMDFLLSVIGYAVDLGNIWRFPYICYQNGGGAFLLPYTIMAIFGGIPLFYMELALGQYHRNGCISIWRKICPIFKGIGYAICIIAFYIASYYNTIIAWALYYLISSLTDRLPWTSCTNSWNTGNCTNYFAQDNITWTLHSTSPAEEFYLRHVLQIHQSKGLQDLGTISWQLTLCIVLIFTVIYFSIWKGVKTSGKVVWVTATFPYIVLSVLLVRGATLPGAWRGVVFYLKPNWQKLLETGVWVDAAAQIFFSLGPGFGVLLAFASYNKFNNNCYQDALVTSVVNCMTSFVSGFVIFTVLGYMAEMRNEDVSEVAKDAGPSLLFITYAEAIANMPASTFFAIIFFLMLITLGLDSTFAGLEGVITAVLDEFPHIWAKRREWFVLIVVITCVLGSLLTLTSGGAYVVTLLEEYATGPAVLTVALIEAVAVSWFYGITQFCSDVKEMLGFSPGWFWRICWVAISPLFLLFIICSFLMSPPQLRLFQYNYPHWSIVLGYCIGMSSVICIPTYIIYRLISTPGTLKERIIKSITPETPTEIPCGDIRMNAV
T2 sequence (P23977 whole entry): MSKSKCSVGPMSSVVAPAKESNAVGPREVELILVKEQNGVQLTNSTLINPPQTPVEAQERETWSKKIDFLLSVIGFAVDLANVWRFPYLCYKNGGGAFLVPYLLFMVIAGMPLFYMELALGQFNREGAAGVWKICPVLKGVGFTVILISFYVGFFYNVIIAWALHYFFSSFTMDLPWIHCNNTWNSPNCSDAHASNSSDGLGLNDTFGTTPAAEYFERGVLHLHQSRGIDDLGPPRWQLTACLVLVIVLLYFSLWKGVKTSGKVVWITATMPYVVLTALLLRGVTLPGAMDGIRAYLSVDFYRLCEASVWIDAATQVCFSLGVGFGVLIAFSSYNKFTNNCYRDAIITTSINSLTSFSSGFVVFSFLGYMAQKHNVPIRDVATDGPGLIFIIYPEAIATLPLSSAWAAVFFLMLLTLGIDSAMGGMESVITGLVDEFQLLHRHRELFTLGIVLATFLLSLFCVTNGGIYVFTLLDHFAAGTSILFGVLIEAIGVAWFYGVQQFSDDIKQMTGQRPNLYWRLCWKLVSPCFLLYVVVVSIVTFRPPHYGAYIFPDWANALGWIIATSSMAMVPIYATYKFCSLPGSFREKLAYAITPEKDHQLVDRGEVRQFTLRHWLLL

| SMILES | IC50 [1, 2] [nM] | IC50 (Serotonin (5-HT) uptake; [3]) [nM] | IC50 (Dopamine (DA) uptake) [nM] | IC50 ([1]; read-out: 50% inhibitory concentration, tritium-labeled NE 12 nM, 37° C. ten minutes) [nM] | IC50 (Serotonin (5-HT) uptake; 50% Inhibitory concentration) [nM] |
| --- | --- | --- | --- | --- | --- |
| CC1(C)CN(c2ccc3sccc3c2)[C@@H]2CCCCC[C@@H]2N1 (racemic) [Example 344] | 7.5 | 6.8 | 9.8 |  |  |
| CC1(C)CN(c2ccc3sccc3c2)[C@H]2CCC[C@@H]2N1 (relative stereo) [Example 13] | 14.3 | 5.1 | 85.4 |  |  |
| CC1(C)CN(c2cccc3sccc23)[C@@H]2CCCC[C@@H]2N1 (relative stereo) [Example 27] | 0.9 | 5.8 | 31.9 |  |  |
| C[C@@H]1CN(c2ccc3sccc3c2)[C@H]2CCCC[C@@H]2N1 (relative stereo) [Example 285] | 1.4 | 19.7 | 43.9 |  |  |
| OCCN1CCN(c2ccc(Cl)c(Cl)c2)[C@H]2CCCC[C@@H]21 (relative stereo) [Example 300] | 9.9 | 89.1 | 81.3 |  |  |
| c1cc2cc(N3CC4(CCCC4)N[C@H]4CCCC[C@@H]43)ccc2s1 (relative stereo) [Example 307] | 40.4 | 19.3 | 68.2 |  |  |
| CC1(C)CCN(c2ccc(Cl)c(Cl)c2)[C@@H]2CCCC[C@@H]2N1 (relative stereo) [Example 322] | 40.1 | 9.6 | 67.7 |  |  |
| CC1(C)CN(c2ccc(Cl)c(Cl)c2)[C@@H]2CCCCC[C@@H]2N1 (relative stereo) [Example 346] | 8.8 | 10 | 7.8 |  |  |
| CC1(C)CN(c2ccc3sccc3c2)[C@H]2CCCCC[C@@H]2N1 (relative stereo) [Example 348] | 4.6 | 6.4 | 27.3 |  |  |
| CC1(C)CN(c2ccc(F)c3ccccc23)[C@H]2CCCC[C@@H]2N1 (relative stereo) [Example 409] | 9.1 | 35.6 | 165 |  |  |
| C[C@@H]1CN(c2cccc3ccsc23)[C@@H]2CCCC[C@@H]2N1 (relative stereo) [Example 1113] | 1.7 | 5.4 | 26 |  |  |
| CC1(C)CN(c2ccc(Cl)c(Cl)c2)C2CCCC2N1 (stereo not drawn) [Example 10] | 8.8 | 6.2 | 64.8 |  |  |
| CC1(C)CN(c2ccc(F)c3occc23)[C@@H]2CCCC[C@@H]2N1 [Example 77, (4aS,8aR)-1-(7-fluorobenzofuran-4-yl)-3,3-dimethyldecahydroquinoxaline] | 3.9 | 0.8 | 41.2 |  |  |
| CC1(C)CN(c2cccc3ncccc23)[C@H]2CCCC[C@H]2N1 [Example 120] |  |  | 187 | 9.2 | 9.2 |
| CC1(C)CN(c2ccc(F)c3occc23)[C@H]2CCCC[C@H]2N1 [Example 136] | 0.5 | 1.3 | 7.7 |  |  |
| CC1(C)CN(c2ccccc2Cl)[C@H]2CCCC[C@H]2N1 [Example 165] | 2.4 | 12 | 6.8 |  |  |
| CC1(C)CN(c2ccc3sccc3c2)[C@H]2CCCC[C@@H]2N1 [Example 186] | 3.8 | 5.2 | 29.8 |  |  |

Further compounds by falling IC50 [1, 2], results first:

| IC50 [1, 2] [nM] | IC50 (Serotonin (5-HT) uptake; [3]) [nM] | IC50 (Dopamine (DA) uptake) [nM] | SMILES | IC50 ([1]; read-out: 50% inhibitory concentration, tritium-labeled NE 12 nM, 37° C. ten minutes) [nM] | IC50 (Serotonin (5-HT) uptake; 50% Inhibitory concentration) [nM] |
| --- | --- | --- | --- | --- | --- |
| 87.3 | 7.1 | 264 | CC1(C)CN(c2ccc(F)c(Cl)c2)[C@@H]2CCCC[C@@H]2N1 [Example 112, (4aS,8aR)-1-(3-chloro-4-fluorophenyl)-3,3-dimethyldecahydroquinoxaline hydrochloride] |  |  |
| 60.9 | 2.4 | 378 | CC1(C)CN(c2ccc3sccc3c2)C2COCC2N1 (stereo not drawn) [Example 8] |  |  |
| 23.6 | 5.4 | 200 | Cn1c(C#N)cc2cc(N3CC(C)(C)N[C@@H]4CCCC[C@@H]43)ccc21 [Example 150, 5-((4aR,8aS)-3,3-dimethyldecahydroquinoxalin-1-yl)-1-methyl-1H-indole-2-carbonitrile] |  |  |
| 22 | 56.1 | 74.7 | CC[C@@H]1CN(c2ccc3ccccc3c2)[C@H]2CCCC[C@@H]2N1C (relative stereo) [Example 288] |  |  |
| 11 | 12.5 | 68.4 | CC1(C)CN(c2ccc(Cl)c(Cl)c2)[C@H]2CCC[C@@H]2N1 (racemic) [Example 15] |  |  |
| 9.5 | 1 | 78.9 | CC1(C)CN(c2ccc3sccc3c2)[C@@H]2CCC[C@@H]2N1 (racemic) [Example 7] |  |  |
| 4.9 | 7.2 | 95.7 | CC1(C)CN(c2cccc3[nH]ccc23)[C@@H]2CCCC[C@@H]2N1 [Example 85] |  |  |
| 4.6 | 7.1 | 85.9 | CC1(C)CN(c2ccc3cc[nH]c3c2)[C@H]2CCCC[C@H]2N1 [Example 2, (4aR,8aS)-1-(1H-indol-6-yl)-3,3-dimethyldecahydroquinoxaline] |  |  |
| 4.4 | 6.4 | 74.8 | CC1(C)CN(c2ccc3ncsc3c2)[C@H]2CCCC[C@@H]2N1 (racemic) [Example 405] |  |  |
| 3.7 | 13.7 | 8.3 | CC1(C)CN(c2cccc3ccccc23)[C@H]2CCCC[C@H]2N1 [Example 118] |  |  |
| 3.1 | 8.8 | 3.9 | CN1[C@@H]2CCCC[C@@H]2N(c2cccc3occc23)CC1(C)C [Example 132] |  |  |
| 1.9 | 4.7 | 5.2 | CN1[C@@H]2CCCC[C@@H]2N(c2cccc3sccc23)CC1(C)C [Example 125] |  |  |
| 1 | 2.6 | 47.9 | CC1(C)CN(c2cccc3ccsc23)[C@@H]2CCCC[C@@H]2N1 [Example 72] |  |  |
| 0.8 | 8.5 | 9.1 | CC1(C)CN(c2cccc3sccc23)[C@H]2CCCC[C@H]2N1 [Example 124] |  |  |
| 0.7 | 2.6 | 15.1 | CC1(C)CN(c2cccc3occc23)[C@@H]2CCCC[C@@H]2N1 (relative stereo) [Example 33] |  |  |
| 0.7 | 6.1 | 8.3 | CC1(C)CN(c2cccc3occc23)[C@H]2CCCC[C@H]2N1 [Example 131] |  |  |
| 0.5 | 5.3 | 3.9 | CC1(C)CN(c2cccc3ccsc23)[C@H]2CCCC[C@H]2N1 [Example 130] |  |  |
